Test results as given in BindingDB's records for PubMed 39481228 (Anhui Medical University).

Legend:
Cholinesterase [1] = target: T1, Cholinesterase (Homo sapiens, UniProt P06276); assay: Binding affinity to human BuChE (unknown origin) assessed as overall carbamolyation rate at 0.025 to 100 uM incubated for 60 mins
Cholinesterase [2] = target: T1, Cholinesterase; assay: Binding affinity to human BuChE (unknown origin) assessed as overall carbamolyation rate at 100 to 1000 nM incubated for 60 mins

T1 sequence (P06276 whole entry): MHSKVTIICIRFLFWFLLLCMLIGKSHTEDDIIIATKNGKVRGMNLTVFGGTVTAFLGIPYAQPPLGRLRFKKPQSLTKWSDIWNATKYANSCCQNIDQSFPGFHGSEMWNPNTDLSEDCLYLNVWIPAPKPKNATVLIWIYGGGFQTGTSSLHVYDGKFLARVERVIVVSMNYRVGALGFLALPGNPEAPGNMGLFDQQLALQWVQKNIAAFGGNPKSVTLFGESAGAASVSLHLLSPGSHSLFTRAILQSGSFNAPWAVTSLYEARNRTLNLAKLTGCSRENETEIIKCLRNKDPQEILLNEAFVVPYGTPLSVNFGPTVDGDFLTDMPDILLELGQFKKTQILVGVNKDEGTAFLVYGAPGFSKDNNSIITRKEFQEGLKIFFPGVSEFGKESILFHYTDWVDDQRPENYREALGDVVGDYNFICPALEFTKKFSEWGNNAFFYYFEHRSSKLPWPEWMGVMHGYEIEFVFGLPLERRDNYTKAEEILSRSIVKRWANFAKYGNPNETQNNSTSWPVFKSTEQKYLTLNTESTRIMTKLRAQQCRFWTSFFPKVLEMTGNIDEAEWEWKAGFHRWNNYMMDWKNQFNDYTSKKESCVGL

Compound	Ki (Cholinesterase [1]) [nM]	Ki (Cholinesterase [2]) [nM]
COc1ccc(C(C)=O)c(OC(=O)N2CCCCC2)c1	0.31	
COc1ccc(C(C)=O)c(OC(=O)N(C)Cc2ccc(F)cc2)c1		2.8
